Literature values in patent US20050084931A1, “Human prostaglandin DP receptor variants and methods of using same” (priority 2003, published 2005).
Like-named read-outs stand apart in the source and are kept apart here.

Target: T1, human DP receptor (Homo sapiens, UniProt Q13258)
T1 sequence (Q13258 1-359): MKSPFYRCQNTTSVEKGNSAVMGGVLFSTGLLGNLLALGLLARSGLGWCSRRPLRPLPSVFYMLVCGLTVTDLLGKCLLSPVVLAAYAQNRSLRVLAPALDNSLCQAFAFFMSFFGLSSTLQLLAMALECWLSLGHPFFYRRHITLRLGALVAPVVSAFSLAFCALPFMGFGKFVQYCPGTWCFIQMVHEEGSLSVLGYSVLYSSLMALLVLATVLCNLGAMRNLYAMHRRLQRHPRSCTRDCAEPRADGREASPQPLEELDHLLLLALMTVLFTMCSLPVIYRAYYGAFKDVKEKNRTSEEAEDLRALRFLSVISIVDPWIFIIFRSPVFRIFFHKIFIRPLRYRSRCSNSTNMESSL

For `CCCCC[C@H](O)/C=C/[C@H]1C(=O)C[C@H](O)[C@@H]1C/C=C\CCCC(=O)O` [PGD2, Prostaglandin D2], the Kd (high-affinity site, read-out: high-affinity binding site) is given as 0.3 nM and the Kd (read-out: lower-affinity site) is given as roughly 13 nM.
